Experiment: Average particle diameter of preparation (Zetasizer Nano ZS)
Type: physicochemical
Conditions: average particle diameter of cationic lipid/nucleic acid complex; Example 118 preparation: compound/PEG-DMPE Na/DSPC/cholesterol with apo-b siRNA
Excerpt: Preparations were produced using the compounds obtained in Examples 1 to 117, as follows.
APO-B siRNA was used as the nucleic acid. APO-B siRNA suppresses expression of an apolipoprotein-B (hereinafter, “apo-b”) gene and has a sense strand with the base sequence 5′-GmUCAmUCACACmUGAAmUACCAAmU-3′ (the sugars attached to the bases appended with m are 2′-O-methyl-substituted riboses), and an antisense strand with the base sequence 5′-[…]-3′ (the 5′-end is phosphorylated). The sense strand and the antisense strand were obtained from Nippon EGT, GeneDesign, Inc., Invitrogen or Hokkaido System Science Co., Ltd., and annealed to prepare the nucleic acid (hereinafter, “apo-b siRNA”).
A solution comprising the constituent components was prepared by dissolving each of the weighed samples in 90 vol % ethanol in 8.947/1.059/5.708/13.697 mmol/L [compounds 1 to 117 obtained in Examples 1 to 117/sodium 1,2-dimyristoyl-sn-glycero-3-phosphoethanolamine-N-(methoxy(polyethylene glycol)-2000) (PEG-DMPE Na,N-(carbonylmethoxypolyethylene glycol 2000)-1,2-dimyristoyl-sn-glycero-3-phosphoethanolamine sodium salt, NOF Corporation)/distearoylphosphatidyl choline (DSPC, 1,2-distearoyl-sn-glycero-3-phosphocholine, NOF Corporation)/cholesterol (Avanti Polar Lipids)]. Separately, apo-b siRNA/distilled water (24 mg/mL) was diluted with a Tris-EDTA buffer (200 mM Tris-HCl, 20 mM EDTA, Invitrogen) and a 20 mM citric acid buffer (pH 5.0) to prepare a 1.5 mg/mL apo-b siRNA aqueous solution (2 mM Tris-EDTA/20 mM citric acid buffer, pH 5.0).
The resulting lipid solution was heated to 37° C., and a 100-μL portion was transferred to a preparation container. The apo-b siRNA aqueous solution (100 μL) was then added thereto while being stirred. Then, a 20 mM citric acid buffer (containing 300 mM NaCl, pH 6.0; 200 μL) was added to the lipid nucleic acid mixed suspension (200 μL) while being stirred. The siRNA concentration was brought to 10 μM by dropping a Dulbecco phosphate buffer (DPBS, Invitrogen; 662 μL), and preparations (compositions comprising compounds 1 to 117 and the nucleic acid) were obtained.
The average particle diameter of the complex between the cationic lipis and the nucleic acid in each preparation was measured with a particle diameter measurement device (Malvern; Zetasizer Nano ZS).

Row | SMILES | Particle diameter of Preparetion
1 | CCCCCC/C=C\CCCCCCCCO[C@@H]1CN(C)C[C@H]1OCCCCCCCC/C=C\CCCCCC [Compound 14, (3R,4R)-3,4-bis((Z)-Hexadec-9-enyloxy)-1-methylpyrrolidine] | 139.3 nm
2 | CCCCCCCCCCC/C=C\CCCCCO[C@@H]1CN(C)C[C@H]1OCCCCC/C=C\CCCCCCCCCCC [Compound 15, (3R,4R)-1-Methyl-3,4-bis((Z)-octadec-6-enyloxy)pyrrolidine] | 139.1 nm
3 | CCCCC/C=C\C/C=C\CCCCCCCCO[C@H]1C[N+](C)(C)C[C@H]1OCCCCCCCC/C=C\C/C=C\CCCCC.[Cl-] [Compound 21, (3R,4,5)-1,1-Dimethyl-3,4-bis((9Z,12Z)-octadec-9,12-dienyloxy)pyrrolidinium chloride] | 112.4 nm
4 | CCCCCCCC/C=C\CCCCCCCC(=O)O[C@@H]1C[N+](C)(C)C[C@H]1OC(=O)CCCCCCC/C=C\CCCCCCCC.[Cl-] [Compound 23, (3R,4R)-1,1-Dimethyl-3,4-bis((Z)-octadec-9-enoyloxy)pyrrolidinium chloride] | 108.7 nm
5 | CCCCC/C=C\C/C=C\CCCCCCCC(=O)O[C@@H]1CN(C(=O)CN(C)C)C[C@H]1OC(=O)CCCCCCC/C=C\C/C=C\CCCCC [Compound 26, (3R,4R)-1-(2-(Dimethylamino)acetyl)pyrrolidine-3,4-diyl di((9Z,12Z)-octadec-9,12-dienoate)] | 133.9 nm
6 | CCCCCCCC/C=C\CCCCCCCC(=O)O[C@@H]1CN(C(=O)CN(C)C)C[C@H]1OC(=O)CCCCCCC/C=C\CCCCCCCC [Compound 27, (3R,4R)-1-(2-(Dimethylamino)acetyl)pyrrolidine-3,4-diyl di((Z)-octadec-9-enoate)] | 135.2 nm
7 | CCCCC/C=C\C/C=C\CCCCCCCCO[C@@H]1CN(C(=O)CCN(C)C)C[C@H]1OCCCCCCCC/C=C\C/C=C\CCCCC [Compound 28, (3R,4R)-1-(3-(Dimethylamino)propanoyl)-3,4-bis((9Z,12Z)-octadec-9,12-dienyloxy)pyrrolidine] | 132.2 nm
8 | CCCCCCCCCCCCCCOCCN(C)CCOCCCCCCCCCCCCCC [Compound 34, N-Methyl-N,N-bis(2-(tetradecyloxy)ethyl)amine] | 165.7 nm
9 | CCCCCCCCCCCCCCCCCCOCCN(C)CCOCCCCCCCCCCCCCCCCCC [Compound 37, N-Methyl-N,N-bis(2-(octadecyloxy)ethyl)amine] | 151.3 nm
10 | CCCCCCCCCCCCCCCCO[C@@H]1CNC[C@H]1OCCCCCCCCCCCCCCCC [Compound 38, (3R,4R)-3,4-bis(Hexadecyloxy)pyrrolidine] | 157.2 nm
11 | CCCCCCCCCCCCCCCCCCO[C@@H]1CNC[C@H]1OCCCCCCCCCCCCCCCCCC [Compound 39, (3R,4R)-3,4-bis(Octadecyloxy)pyrrolidine] | 444.5 nm
12 | CCCCCCCC/C=C\CCCCCCCCCCO[C@@H]1CNC[C@H]1OCCCCCCCCCC/C=C\CCCCCCCC [Compound 42, (3R,4R)-3,4-bis((Z)-Icos-11-enyloxy)pyrrolidine] | 131.3 nm
13 | CCCCCCCCCCCCCCCCCCO[C@@H]1CN(C)C[C@H]1OCCCCCCCCCCCCCCCCCC [Compound 46, (3R,4R)-1-Methyl-3,4-bis(octadecyloxy)pyrrolidine] | 192.0 nm
14 | CCCCCC/C=C\CCCCCCCCCCO[C@@H]1CN(C)C[C@H]1OCCCCCCCCCC/C=C\CCCCCC [Compound 48, (3R,4R)-1-Methyl-3,4-bis((Z)-octadec-11-enyloxy)pyrrolidine] | 135.0 nm

Results, then the molecule that gave them:

Row | Particle diameter of Preparetion | SMILES
15 | 150.2 nm | CCCCCCCCCCCCCCO[C@@H]1CN(C)C[C@H]1OCCCCCCCCCCCCCC [Compound 13, (3R,4R)-1-Methyl-3,4-bis(tetradecyloxy)pyrrolidine]
16 | 143.2 nm | CCCCC/C=C\C/C=C\CCCCCCCCCCO[C@@H]1CN(C)C[C@H]1OCCCCCCCCCC/C=C\C/C=C\CCCCC [Compound 16, (3R,4R)-3,4-bis((11Z,14Z)-Icos-11,14-dienyloxy)-1-methylpyrrolidine]
17 | 142.6 nm | CCCCC/C=C\C/C=C\CCCCCCCCO[C@@H]1CN(CC)C[C@H]1OCCCCCCCC/C=C\C/C=C\CCCCC [Compound 17, (3R,4R)-1-Ethyl-3,4-bis((9Z,12Z)-octadec-9,12-dienyloxy)pyrrolidine]
18 | 146.4 nm | CCCCCCCC/C=C\CCCCCCCCO[C@@H]1CN(CC)C[C@H]1OCCCCCCCC/C=C\CCCCCCCC [Compound 18, (3R,4R)-1-Ethyl-3,4-bis((Z)-octadec-9-enyloxy)pyrrolidine]
19 | 107.5 nm | CCCCC/C=C\C/C=C\CCCCCCCC(=O)O[C@@H]1C[N+](C)(C)C[C@H]1OC(=O)CCCCCCC/C=C\C/C=C\CCCCC.[Cl-] [Compound 20, (3R,4R)-1,1-Dimethyl-3,4-bis((9Z,12Z)-octadec-9,12-dienoyloxy)pyrrolidinium chloride]
20 | 160.7 nm | CCCCC/C=C\C/C=C\CCCCCCCCO[C@@H]1CN(CC(O)CO)C[C@H]1OCCCCCCCC/C=C\C/C=C\CCCCC (stereo partly drawn) [Compound 24, 3-((3R,4R)-3,4-bis((9Z,12Z)-Octadec-9,12-dienyloxy)pyrrolidin-1-yl) propane-1,2-diol]
21 | 126.0 nm | CCCCC/C=C\C/C=C\CCCCCCCCO[C@@H]1CN(C(=O)CN(C)C)C[C@H]1OCCCCCCCC/C=C\C/C=C\CCCCC [Compound 25, (3R,4R)-1-(2-(Dimethylamino)acetyl)-3,4-bis((9Z,12Z)-octadec-9,12-dienyloxy)pyrrolidine]
22 | 122.5 nm | CCCCC/C=C\C/C=C\CCCCCCCC(=O)O[C@@H]1CN(C(=O)CCN(C)C)C[C@H]1OC(=O)CCCCCCC/C=C\C/C=C\CCCCC [Compound 29, (3R,4R)-1-(3-(dimethylamino)propanoyl)pyrrolidine-3,4-diyl di((9Z,12Z)-octadec-9,12-dienoate)]
23 | 132.7 nm | CCCCCCCC/C=C\CCCCCCCC(=O)O[C@@H]1CN(C(=O)CCN(C)C)C[C@H]1OC(=O)CCCCCCC/C=C\CCCCCCCC [Compound 30, (3R,4R)-1-(3-(Dimethylamino)propanoyl)pyrrolidine-3,4-diyl di((Z)-octadec-9-enoate)]
24 | 100.7 nm | CCCCC/C=C\C/C=C\CCCCCCCCO[C@@H]1CN(C(=O)[C@@H](N)CCCCN)C[C@H]1OCCCCCCCC/C=C\C/C=C\CCCCC [Compound 31, (3R,4R)-1-((5)-2,6-Diaminohexanoyl)-3,4-bis((9Z,12Z)-octadec-9,12-dienyloxy)pyrrolidine]
25 | 154.2 nm | CCCCC/C=C\C/C=C\CCCCCCCCOCCN(C)CCOCCCCCCCC/C=C\C/C=C\CCCCC [Compound 32, N-Methyl-N,N-bis(2-((9Z,12Z)-octadec-9,12-dienyloxy)ethyl)amine]
26 | 152.1 nm | CCCCCCCC/C=C\CCCCCCCCOCCN(C)CCOCCCCCCCC/C=C\CCCCCCCC [Compound 33, N-Methyl-N,N-bis(2-((Z)-octadec-9-enyloxy)ethyl)amine]
27 | 126.5 nm | CCCCCC/C=C\CCCCCCCCOCCN(C)CCOCCCCCCCC/C=C\CCCCCC [Compound 35, N-Methyl-N,N-bis(2-((Z)-hexadec-9-enyloxy)ethyl)amine]
28 | 137.2 nm | CCCCCCCCCCC/C=C\CCCCCOCCN(C)CCOCCCCC/C=C\CCCCCCCCCCC [Compound 36, N-Methyl-N,N-bis(2-((Z)-octadec-6-enyloxy)ethyl)amine]
29 | 133.8 nm | CCCC/C=C\CCCCCCCCO[C@@H]1CNC[C@H]1OCCCCCCCC/C=C\CCCC [Compound 40, (3R,4R)-3,4-bis((Z)-Tetradec-9-enyloxy)pyrrolidine]
30 | 134.4 nm | CCCCCC/C=C\CCCCCCCCCCO[C@@H]1CNC[C@H]1OCCCCCCCCCC/C=C\CCCCCC [Compound 41, (3R,4R)-3,4-bis((Z)-Octadec-11-enyloxy)pyrrolidine]
31 | 136.3 nm | CCCCCCCCCCCCCCCCO[C@@H]1CN(C)C[C@H]1OCCCCCCCCCCCCCCCC [Compound 45, (3R,4R)-3,4-bis(Hexadecyloxy)-1-methylpyrrolidine]
32 | 125.8 nm | CCCC/C=C\CCCCCCCCO[C@@H]1CN(C)C[C@H]1OCCCCCCCC/C=C\CCCC [Compound 47, (3R,4R)-1-Methyl-3,4-bis((Z)-tetradec-9-enyloxy)pyrrolidine]
33 | 141.7 nm | CCCCCCCC/C=C\CCCCCCCCCCO[C@@H]1CN(C)C[C@H]1OCCCCCCCCCC/C=C\CCCCCCCC [Compound 49, (3R,4R)-3,4-bis((Z)-Icos-11-enyloxy)-1-methylpyrrolidine]

Reference: patent US20170349532A1, “CATIONIC LIPID” (Kyowa Hakko Kirin Co., Ltd., priority 2011, published 2017)
